The source of these data is patent US20230024302A1, “2,3,5-TRISUBSTITUTED PYRAZOLO[1,5-A]PYRIMIDINE COMPOUNDS” (Arcus Biosciences, Inc., priority 2019, published 2023).

Experiment [1] addresses T1, PI3Kγ (p120γ) (Homo sapiens, UniProt P48736).
T1 construct: purchased Promega V1761
Nature of the experiment: Inhibition of PI3K kinase activity (ADP Glo), PI3Kγ. The following applies: Table 1, p120γ, read-out: biochemical potency (PI3Kγ IC50). The method, then: Compounds were evaluated to determine the potency with which they inhibited the kinase activity of the Class I PI3K subunits p110α/p85α (Promega, Cat #V1721), p110β/p85α (Promega, Cat #V1751), p120γ (Promega, Cat #V1761) and p110δ/p85α (Promega, Cat #V1771). Activity was determined as a function of ADP (adenosine diphosphate) generated from ATP consumed during the phosphorylation of Phosphatidylinositol 4,5-bisphosphate (PIP2) (Promega, Cat #V1701) to yield Phosphatidylinositol (3,4,5)-trisphosphate (PIP3). ADP levels in the assay mixture at the end of the reaction were quantitated using ADP Glo (Promega, Cat #V9103) according to the manufacturer's recommended protocol.
Enzyme was prepared for each of the PI3K subunits in 100 mM HEPES, pH 7.4, 100 mM NaCl, 6 mM MgCl2 and 0.05% BSA. p110α/p85α was prepared at 2 nM (2×), p110β/p85α was prepared at 7 nM (2×), p120γ was prepared at 8 nM (2×) and p110δ/p85α was prepared at 2 nM (2×). Five microliters of 2× enzyme dilution of each PI3K subunit were added to a 384-well white Opti-plates pre-dispensed with compound and allowed to incubate for 1 h at rt. A substrate mix containing 0.1 mg/ml (2×) of PIP2 and 50 μM (2×) ATP (Promega, Cat #V915) was prepared in 25 mM HEPES and 0.5 mM EGTA. Reactions were initiated by addition of 5 μl of 2× substrate mix to each well of the plates containing various PI3K isoforms and allowed to proceed for 60 min at rt. Ten microliters of ADP Glo reagent 1 were added to the wells of each plate and allowed to incubate at rt for 45 min according to the manufacturer's directions. Following incubation, 20 μl of ADP Glo reagent 2 was added to each plate and allowed to incubate for an additional 45 min. Luminescent signal, generated by ADP Glo, was quantified by reading on a Perkin Elmer Envision multimode reader. Compound potencies (IC50's) were determined using a standard 4-parameter fit non-linear regression fit.
A general note: ADP-Glo turns the ADP formed in a reaction into a luminescent signal.

In experiment [2] the target is T2, PI3Kγ (Homo sapiens, UniProt P48736).
T2 construct: host or cells: THP-1
T2 sequence (P48736 whole entry): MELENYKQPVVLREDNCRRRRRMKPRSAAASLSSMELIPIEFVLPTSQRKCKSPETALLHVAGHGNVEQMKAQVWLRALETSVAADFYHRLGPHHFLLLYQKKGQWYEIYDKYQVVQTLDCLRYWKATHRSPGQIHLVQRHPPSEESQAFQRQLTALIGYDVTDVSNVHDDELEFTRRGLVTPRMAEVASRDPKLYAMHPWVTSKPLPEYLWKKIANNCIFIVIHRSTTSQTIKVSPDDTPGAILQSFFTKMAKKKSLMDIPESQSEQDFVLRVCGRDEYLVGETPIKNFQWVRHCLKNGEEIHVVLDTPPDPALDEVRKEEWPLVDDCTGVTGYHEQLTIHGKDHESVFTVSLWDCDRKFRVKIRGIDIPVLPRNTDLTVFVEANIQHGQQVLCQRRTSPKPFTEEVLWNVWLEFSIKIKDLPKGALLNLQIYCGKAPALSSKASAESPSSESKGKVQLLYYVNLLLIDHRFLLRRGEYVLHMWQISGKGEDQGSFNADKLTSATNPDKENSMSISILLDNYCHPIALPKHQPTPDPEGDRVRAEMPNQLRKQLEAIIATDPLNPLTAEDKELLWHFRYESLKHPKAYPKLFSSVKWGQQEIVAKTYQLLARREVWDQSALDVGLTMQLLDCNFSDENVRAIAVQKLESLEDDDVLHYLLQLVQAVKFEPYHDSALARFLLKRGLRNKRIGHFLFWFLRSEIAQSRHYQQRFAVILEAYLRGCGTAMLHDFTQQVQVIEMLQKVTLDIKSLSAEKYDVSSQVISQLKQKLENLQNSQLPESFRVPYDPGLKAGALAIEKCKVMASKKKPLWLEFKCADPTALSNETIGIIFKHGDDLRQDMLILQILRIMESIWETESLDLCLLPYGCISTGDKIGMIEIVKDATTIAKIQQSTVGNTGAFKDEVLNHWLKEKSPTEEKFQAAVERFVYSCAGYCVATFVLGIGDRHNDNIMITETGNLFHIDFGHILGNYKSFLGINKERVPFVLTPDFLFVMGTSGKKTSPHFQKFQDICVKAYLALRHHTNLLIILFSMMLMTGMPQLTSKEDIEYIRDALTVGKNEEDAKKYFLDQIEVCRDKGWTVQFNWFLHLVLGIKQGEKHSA
As to the kind of experiment: PI3Kγ cellular assay in THP-1 cells (AKT pS473 AlphaLISA). It counts as cell-based. The note with it: Table 1, rhMCP-1 stimulated AKT pS473, read-out: cellular potency (PI3Kγ IC50). The method, then:
Twenty microliters of serum starved THP-1 cells were added to the compound plate in serum free DMEM at a density of 9×10^6 cells per ml. Final assay conditions comprised 1.8×10^5 THP-1 cells per well with test compounds in 2% DMSO across a concentration range from 4 nM to 30 μM. […] Briefly, 10 μL of 4× lysis buffer was added to cells after stimulation. Following 60 min incubation at rt, 10 μL of cell lysate was transferred to a fresh 384-well Opti-plate to which 5 μL of AlphaLisa acceptor beads and 5 μL of AlphaLisa donor beads had been added. […] PI3Kγ activity was evaluated as a correlate of endogenous AKT phosphorylation levels. Percentage maximum activity in each test well was calculated based on DMSO (100% activity) and positive control treated cell wells (0% activity). The potencies (IC50's) of test compounds were determined using a standard 4-parameter fit non-linear regression fit.
A general note: Alpha assays give light when donor and acceptor beads are brought close together.

T1 sequence (P48736 whole entry): as above

Turning to `Cc1cc(-c2ccn3nc(N)c(C(=O)N[C@H]4CC[C@@](C)(O)CC4)c3n2)cc2c1C(=O)N([C@@H](C)C1CC1)C2` [Example 2, 2-Amino-5-{2-[(1S)-1-cyclopropylethyl]-7-methyl-1-oxo-2,3-dihydro-1H-isoindol-5-yl}-N-[cis-4-hydroxy-4-methylcyclohexyl]pyrazolo[1,5-a]pyrimidine-3-carboxamide], the IC50 in experiment [1] and in experiment [2] was < 100 nM in each case.
With `Cc1cc(-c2ccn3nc(N)c(C(=O)N[C@H]4CC[C@H](O)C4)c3n2)cc2c1C(=O)N([C@@H](C)C1CC1)C2` [Example 3, 2-Amino-5-{2-[(1S)-1-cyclopropylethyl]-7-methyl-1-oxo-2,3-dihydro-1H-isoindol-5-yl}-N-[(1S,3S)-3-hydroxycyclopentyl]pyrazolo[1,5-a]pyrimidine-3-carboxamide], the concentration for half-maximal inhibition (IC50) in experiment [1] and in experiment [2] was < 100 nM each time.
Consider `Cc1cc(-c2ccn3nc(N)c(C(=O)NC[C@H]4C[C@H](O)C4)c3n2)cc2c1C(=O)N([C@@H](C)C1CC1)C2` [Example 4], for which the IC50 in experiment [1] and in experiment [2] was < 100 nM each time.
`Cc1cc(-c2ccn3nc(N)c(C(=O)N[C@@H]4CC[C@@H](O)C4)c3n2)cc2c1C(=O)N([C@@H](C)C1CC1)C2` [Example 5, 2-Amino-5-{2-[(1S)-1-cyclopropylethyl]-7-methyl-1-oxo-2,3-dihydro-1H-isoindol-5-yl}-N-[(1R,3R)-3-hydroxycyclopentyl]pyrazolo[1,5-a]pyrimidine-3-carboxamide]: the IC50 in experiment [1] and in experiment [2] was < 100 nM throughout.
`Cc1cc(-c2ccn3nc(N)c(C(=O)N[C@H]4C[C@](C)(O)C4)c3n2)cc2c1C(=O)N([C@@H](C)C1CC1)C2` [Example 6, 2-Amino-5-{2-[(1S)-1-cyclopropylethyl]-7-methyl-1-oxo-2,3-dihydro-1H-isoindol-5-yl}-N-[trans-3-hydroxy-3-methylcyclobutyl]pyrazolo[1,5-a]pyrimidine-3-carboxamide]: the half-maximal inhibitory concentration (IC50) in experiment [1] and in experiment [2] was < 100 nM in each case.
As to `Cc1cc(-c2ccn3nc(N)c(C(=O)N[C@H]4CC[C@](C)(O)CC4)c3n2)cc2c1C(=O)N([C@@H](C)C1CC1)C2` [Example 7, 2-Amino-5-{2-[(1S)-1-cyclopropylethyl]-7-methyl-1-oxo-2,3-dihydro-1H-isoindol-5-yl}-N-[trans-4-hydroxy-4-methylcyclohexyl]pyrazolo[1,5-a]pyrimidine-3-carboxamide], the IC50 in experiment [1] and in experiment [2] was < 100 nM in each case.
For `Cc1cc(-c2ccn3nc(N)c(C(=O)N[C@@H]4CCC[C@H]4O)c3n2)cc2c1C(=O)N([C@@H](C)C1CC1)C2` [Example 8, 2-Amino-5-{2-[(1S)-1-cyclopropylethyl]-7-methyl-1-oxo-2,3-dihydro-1H-isoindol-5-yl}-N-[(1R,2R)-2-hydroxycyclopentyl]pyrazolo[1,5-a]pyrimidine-3-carboxamide], the IC50 in experiment [1] and in experiment [2] was < 100 nM in each case.
On to `Cc1cc(-c2ccn3nc(N)c(C(=O)N[C@H]4CCC[C@@H](O)C4)c3n2)cc2c1C(=O)N([C@@H](C)C1CC1)C2` [Example 9, 2-Amino-5-{2-[(1S)-1-cyclopropylethyl]-7-methyl-1-oxo-2,3-dihydro-1H-isoindol-5-yl}-N-[(1S,3R)-3-hydroxycyclohexyl]pyrazolo[1,5-a]pyrimidine-3-carboxamide], for which the 50% inhibitory concentration (IC50) in experiment [1] and in experiment [2] was < 100 nM each time.
Take `Cc1cc(-c2ccn3nc(N)c(C(=O)N[C@H]4CNC(=O)C4)c3n2)cc2c1C(=O)N([C@@H](C)C1CC1)C2` [Example 10, 2-Amino-5-{2-[(1S)-1-cyclopropylethyl]-7-methyl-1-oxo-2,3-dihydro-1H-isoindol-5-yl}-N-[(3R)-5-oxopyrrolidin-3-yl]pyrazolo[1,5-a]pyrimidine-3-carboxamide]: the half-inhibitory concentration (IC50) in experiment [1] and in experiment [2] was < 100 nM each time.
Take `Cc1cc(-c2ccn3nc(N)c(C(=O)N[C@@H]4CCC[C@@H](O)C4)c3n2)cc2c1C(=O)N([C@@H](C)C1CC1)C2` [Example 11, 2-Amino-5-{2-[(1S)-1-cyclopropylethyl]-7-methyl-1-oxo-2,3-dihydro-1H-isoindol-5-yl}-N-[(1R,3R)-3-hydroxycyclohexyl]pyrazolo[1,5-a]pyrimidine-3-carboxamide]: the IC50 in experiment [1] and in experiment [2] was < 100 nM in each case.
Take `Cc1cc(-c2ccn3nc(N)c(C(=O)N[C@H]4C[C@H](CO)C4)c3n2)cc2c1C(=O)N([C@@H](C)C1CC1)C2` [Example 12, 2-Amino-5-{2-[(1S)-1-cyclopropylethyl]-7-methyl-1-oxo-2,3-dihydro-1H-isoindol-5-yl}-N-[trans-3-(hydroxymethyl)cyclobutyl]pyrazolo[1,5-a]pyrimidine-3-carboxamide]: the IC50 in experiment [1] and in experiment [2] was < 100 nM each time.
With `Cc1cc(-c2ccn3nc(N)c(C(=O)N[C@]4(C)C[C@@H](O)C4)c3n2)cc2c1C(=O)N([C@@H](C)C1CC1)C2` [Example 13, 2-Amino-5-{2-[(1S)-1-cyclopropylethyl]-7-methyl-1-oxo-2,3-dihydro-1H-isoindol-5-yl}-N-[trans-3-hydroxy-1-methylcyclobutyl]pyrazolo[1,5-a]pyrimidine-3-carboxamide], the IC50 in experiment [1] and in experiment [2] was < 100 nM in each case.
Take `Cc1cc(-c2ccn3nc(N)c(C(=O)N[C@H]4C[C@H](C(C)(C)O)C4)c3n2)cc2c1C(=O)N([C@@H](C)C1CC1)C2` [Example 14, 2-Amino-5-{2-[(1S)-1-cyclopropylethyl]-7-methyl-1-oxo-2,3-dihydro-1H-isoindol-5-yl}-N-[trans-3-(2-hydroxypropan-2-yl)cyclobutyl]pyrazolo[1,5-a]pyrimidine-3-carboxamide]: the IC50 in experiment [1] and in experiment [2] was < 100 nM throughout.
Take `Cc1cc(-c2ccn3nc(N)c(C(=O)Nc4cccc(C(=O)O)c4)c3n2)cc2c1C(=O)N([C@@H](C)C1CC1)C2` [Example 15, m-[(5-{2-[(S)-1-Cyclopropylethyl]-7-methyl-5-isoindolinoyl}-2-amino-1,4,7a-triaza-3-indenyl)carbonylamino]benzoic acid]: the IC50 in experiment [1] and in experiment [2] was < 100 nM each time.
As for `Cc1cc(-c2ccn3nc(N)c(C(=O)Nc4cnn(CCO)c4)c3n2)cc2c1C(=O)N([C@@H](C)C1CC1)C2` [Example 16, 2-Amino-5-{2-[(1S)-1-cyclopropylethyl]-7-methyl-1-oxo-2,3-dihydro-1H-isoindol-5-yl}-N-[1-(2-hydroxyethyl)-1H-pyrazol-4-yl]pyrazolo[1,5-a]pyrimidine-3-carboxamide], the IC50 in experiment [1] and in experiment [2] was < 100 nM each time.
As to `Cc1cc(-c2ccn3nc(N)c(C(=O)Nc4cnn(CC(C)(C)O)c4)c3n2)cc2c1C(=O)N([C@@H](C)C1CC1)C2` [Example 17, 2-Amino-5-{2-[(1S)-1-cyclopropylethyl]-7-methyl-1-oxo-2,3-dihydro-1H-isoindol-5-yl}-N-[1-(2-hydroxy-2-methylpropyl)-1H-pyrazol-4-yl]pyrazolo[1,5-a]pyrimidine-3-carboxamide], the IC50 in experiment [1] and in experiment [2] was < 100 nM each time.
As to `Cc1cc(-c2ccn3nc(N)c(C(=O)Nc4cnn(C)c4)c3n2)cc2c1C(=O)N([C@@H](C)C1CC1)C2` [Example 18, 2-Amino-5-{2-[(1S)-1-cyclopropylethyl]-7-methyl-1-oxo-2,3-dihydro-1H-isoindol-5-yl}-N-(1-methyl-1H-pyrazol-4-yl)pyrazolo[1,5-a]pyrimidine-3-carboxamide], the IC50 in experiment [1] and in experiment [2] was < 100 nM each time.
Take `Cc1cc(-c2ccn3nc(N)c(C(=O)Nc4cnn(C)c4C)c3n2)cc2c1C(=O)N([C@@H](C)C1CC1)C2` [Example 19, 2-Amino-5-{2-[(1S)-1-cyclopropylethyl]-7-methyl-1-oxo-2,3-dihydro-1H-isoindol-5-yl}-N-(1,5-dimethyl-1H-pyrazol-4-yl)pyrazolo[1,5-a]pyrimidine-3-carboxamide]: the IC50 in experiment [1] and in experiment [2] was < 100 nM throughout.
